Where two headings read alike, the source gives them in different places.
Columns and labels:
Pyricularia oryzae = format: in vivo
Blumeria graminis = experiment: Barley powdery mildew preventive test; format: in vivo; conditions: Table 4; treatment concentration 2 ppm; 8 days after inoculation
Protocol: Barley plants (variety: Akashinriki) planted in plastic pots having a diameter of 5 cm were grown indoors to the second to fourth leaf stage. Wettable powder containing the compounds indicated in Table 4 were sprayed in the same manner as in Test Example 1, and after the chemical had dried, conidia of Blumeria graminis was inoculated onto the leaves. Following inoculation, the pots were transferred to a constant-temperature chamber (20° C. to 25° C.), and control effects were examined 8 days after inoculation.

Botrytis cinerea = conditions: in vivo
Sphaerotheca fuliginea = experiment: Cucumber powdery mildew preventive test; format: in vivo
Protocol: In a greenhouse, cucumber (variety: Sagamihanshiro) planted in a plastic pot having a diameter of 5 cm was grown to the 3rd to 5th-leaf stage. Spray was carried out in the same manner as in Test example 1, and 3 days after the spray, a conidia suspension prepared from Sphaerotheca fuliginea were inoculated on the leaf surface. After inoculation, the pots were placed in a thermostatic greenhouse (20 to 25° C.), and controlling effects were examined after 7 days from the inoculation. In the examination, a ratio of lesion area occupied per one leaf of cucumber was determined according to the same index as in Test example 1, and the control value and the theoretical value according to Colby's formula were similarly calculated.
Wettable powder prepared in compliance with Comparative Preparation Example 4 containing the compounds indicated in Table 7-9 were sprayed to the cucumber leaves, a conidiospore suspension prepared from Sphaerotheca fuliginea was inoculated onto the plants, and the controlling effects were examined in a manner similar to Test Example 6.

[1] = system: Pseudoperonospora cubensis; experiment: Cucumber downy mildew preventive test; format: in vivo; conditions: Table 8, 7 days after inoculation
Protocol: In a greenhouse, cucumber (variety: Sagamihanshiro) planted in a plastic pot having a diameter of 5 cm was grown to the 3rd to 5th-leaf stage. Spray was carried out in the same manner as in Test example 1, and after drying the chemical liquid, the pots were transferred into a greenhouse. After 3 days from the spray, a zoosporangium suspension of Pseudoperonospora cubensis was inoculated. After inoculation, the pots were placed in a high-humidity chamber (20 to 25° C.), transferred into a greenhouse on the next day, and controlling effects were examined after 7 days from the inoculation. A ratio of lesion area occupied per one leaf of cucumber was determined according to the same index as in Test example 1, and the control value and the theoretical value according to Colby's formula were similarly calculated.

Phytophthora infestans = format: in vivo
[2] = Table 3-4, group b ingredient alone, treatment concentration 10 + 2 ppm
[3] = Table 3-4, group b ingredient alone, treatment concentration 10 + 10 ppm
[4] = treatment concentration 0.08 ppm
[5] = Table 6-2, treatment concentration 0.08 ppm, 5 days after inoculation
[6] = Table 6-2, treatment concentration 2 ppm, 5 days after inoculation
[7] = Table 3-5 (Comparative Example 2), treatment concentration 0.4 ppm
[8] = Table 3-2, treatment concentration 10 ppm
[9] = Table 3-3, treatment concentration 50 ppm
[10] = Table 3-3, treatment concentration 10 ppm

Molecule: Cn1cc(C(=O)Nc2cccc3c2[C@@H]2CC[C@H]3C2=C(Cl)Cl)c(C(F)F)n1 (racemic) [Benzovindiflupyr (b-2), Benzovindiflupyr]
- Preventive value (Pyricularia oryzae; [2]): 40
- Control value (Blumeria graminis): 50
- Preventive value (Botrytis cinerea): 40

Molecule: CSC(=O)c1cccc2nnsc12 [Acibenzolar-S-methyl (b-72), Acibenzolar-S-methyl]
- Preventive value (Pyricularia oryzae; [3]): 60
- Preventive value (Sphaerotheca fuliginea; Table 7-7, treatment concentration 2 ppm, 7 days after inoculation): 33

Molecule: CCCCCCCCc1c(CC)nc2ncnn2c1N [Ametoctradin (b-95), Ametoctradin]
- Preventive value ([1]; treatment concentration 2 ppm): 50
- Preventive value (Phytophthora infestans; in vivo): 40

Molecule: Cc1c(Br)c2ccc(F)cc2n1S(=O)(=O)c1ncn(S(=O)(=O)N(C)C)n1 [Amisulbrom (b-97), Amisulbrom]
- Preventive value [1, 4]: 67
- Preventive value (Phytophthora infestans; [5]): 50

Molecule: COC(=O)[C@@H](C)N(C(=O)Cc1ccccc1)c1c(C)cccc1C [Benalaxyl-M (b-75), Benalaxyl-M]
- Preventive value ([1]; treatment concentration 2 ppm): 67
- Preventive value (Phytophthora infestans; [6]): 40

Molecule: Cn1cc(C(=O)Nc2ccc(F)cc2-c2ccc(Cl)c(Cl)c2)c(C(F)F)n1 [Bixafen (b-4), Bixafen]
- Preventive value (Pyricularia oryzae; [3]): 33
- Preventive value (Botrytis cinerea): 33

Molecule: CCC1(C(=O)N[C@H](C)c2ccc(Cl)cc2)C(C)C1(Cl)Cl (stereo partly shown) [Carpropamid]
- Preventive value (Pyricularia oryzae; [7]): 67
- Preventive value (Sphaerotheca fuliginea; in vivo): 33
- Preventive value (Botrytis cinerea): 17

Molecule: CC1CC(C)(C)c2cccc(NC(=O)c3cn(C)nc3C(F)F)c21 (stereo not shown) [Compound of formula (II) (b-3)]
- Control value (Pyricularia oryzae; Table 3-1, treatment concentration 2 ppm): 17
- Control value (Blumeria graminis): 67
- Control value (Botrytis cinerea): 0

Molecule: O=C(CO)[C@@H](O)[C@@H](O)[C@H](O)CO [D-tagatose (b-93), D-tagatose]
- Preventive value (Sphaerotheca fuliginea; in vivo): 33
- Preventive value (Botrytis cinerea): 33
- Preventive value (Phytophthora infestans; Table 6-3, treatment concentration 5000 ppm, 5 days after inoculation): 40

Molecule: C[C@@H](NC(=O)C(C#N)C(C)(C)C)c1ccc(Cl)cc1Cl (stereo partly shown) [Diclocymet]
- Preventive value (Pyricularia oryzae; [7]): 67
- Preventive value (Sphaerotheca fuliginea; in vivo): 40
- Preventive value (Botrytis cinerea): 17

Molecule: CNC(=O)/C(=N/OC)c1ccccc1COc1cc(C)ccc1C [Dimoxystrobin (b-52), Dimoxystrobin]
- Preventive value (Pyricularia oryzae; [8]): 73
- Control value (Sphaerotheca fuliginea; in vivo): 60
- Preventive value (Botrytis cinerea): 17

Molecule: N#Cc1sc2c(=O)c3ccccc3c(=O)c=2sc1C#N [Dithianon (b-81), Dithianon]
- Preventive value (Botrytis cinerea): 33
- Preventive value (Phytophthora infestans; Table 6-3, treatment concentration 2 ppm, 5 days after inoculation): 33

Molecule: O=C(NCc1ncc(C(F)(F)F)cc1Cl)c1c(Cl)cccc1Cl [Fluopicolide (b-40), Fluopicolide]
- Preventive value ([1]; treatment concentration 2 ppm): 67
- Preventive value (Phytophthora infestans; [6]): 40

Molecule: O=C(NCCc1ncc(C(F)(F)F)cc1Cl)c1ccccc1C(F)(F)F [Fluopyram (b-43), Fluopyram]
- Preventive value (Pyricularia oryzae; [3]): 40
- Preventive value (Botrytis cinerea): 40

Molecule: CO/N=C(/C1=NOCCO1)c1ccccc1Oc1ncnc(Oc2ccccc2Cl)c1F [Fluoxastrobin (b-51), Fluoxastrobin]
- Preventive value (Pyricularia oryzae; [8]): 60
- Control value (Sphaerotheca fuliginea; in vivo): 60
- Preventive value (Botrytis cinerea): 40

Molecule: Cc1cc(O)no1 [Hymexazol (b-106)]
- Preventive value ([1]; treatment concentration 250 ppm): 17
- Preventive value (Phytophthora infestans; Table 6-2, treatment concentration 250 ppm, 5 days after inoculation): 33

Molecule: Cc1ccc(C(C)NC(=O)[C@@H](NC(=O)OC(C)C)C(C)C)cc1 (stereo partly shown) [Iprovalicarb (b-50), Iprovalicarb]
- Preventive value (Phytophthora infestans; [6]): 50

Molecule: Cc1ccc(C(C)NC(=O)[C@@H](NC(=O)OC(C)C)C(C)C)cc1 (stereo partly shown) [Iproyalicarb (b-50)]
- Preventive value ([1]; treatment concentration 2 ppm): 50

Molecule: CC(C)OC(=O)C(C(=O)OC(C)C)=C1SCCS1 [Isoprothiolane (b-71), Isoprothiolane]
- Preventive value (Pyricularia oryzae; [9]): 50
- Preventive value (Sphaerotheca fuliginea; in vivo): 40

Molecule: N#Cc1ccccc1NC(=O)c1snc(Cl)c1Cl [Isotianil (b-46), Isotianil]
- Preventive value (Pyricularia oryzae; [3]): 50

Molecule: C#CCOc1ccc(CCNC(=O)C(OCC#C)c2ccc(Cl)cc2)cc1OC (stereo not shown) [Mandipropamid (b-44), Mandipropamid]
- Preventive value [1, 4]: 67
- Preventive value (Phytophthora infestans; [5]): 67

Molecule: CNC(=O)/C(=N/OC)c1ccccc1Oc1ccccc1 [Metominostrobin (b-54), Metominostrobin]
- Preventive value (Pyricularia oryzae; [2]): 40

Molecule: CNC(=O)/C(=N/OC)c1ccccc1CO/N=C(C)/C(=N/OC)C(/C)=N/OC [Orysastrobin (b-53), Orysastrobin]
- Preventive value (Pyricularia oryzae; [8]): 60
- Control value (Sphaerotheca fuliginea; in vivo): 40
- Preventive value (Botrytis cinerea): 47

Molecule: Cc1cc(C(F)(F)F)nn1CC(=O)N1CCC(c2nc(C3=NOC(c4c(F)cccc4F)C3)cs2)CC1 (stereo not shown) [Oxathiapiprolin (b-84), Oxathiapiprolin]
- Preventive value (Sphaerotheca fuliginea; in vivo): 17
- Preventive value (Botrytis cinerea): 33
- Preventive value (Phytophthora infestans; Table 6-3, treatment concentration 0.0016 ppm, 5 days after inoculation): 67

Molecule: CCn1cc(C(=O)O)c(=O)c2cc3c(cc21)OCO3 [Oxolinic acid]
- Preventive value (Pyricularia oryzae; Table 3-5 (Comparative Example 2), treatment concentration 50 ppm): 33
- Preventive value (Sphaerotheca fuliginea; in vivo): 33
- Preventive value (Botrytis cinerea): 17

Molecule: O=C(Nc1ccccc1)N(Cc1ccc(Cl)cc1)C1CCCC1 [Pencycuron (b-76), Pencycuron]
- Preventive value (Pyricularia oryzae; Table 3-3, treatment concentration 250 ppm): 40
- Preventive value (Sphaerotheca fuliginea; in vivo): 33

Molecule: CO/C=C(/C(=O)OC)c1ccccc1COc1cccc(C(F)(F)F)n1 [Picoxystrobin (b-16), Picoxystrobin]
- Preventive value (Pyricularia oryzae; [2]): 50

Molecule: C=CCOC1=NS(=O)(=O)c2ccccc21 [Probenazole (b-73), Probenazole]
- Preventive value (Pyricularia oryzae; [10]): 60
- Preventive value (Sphaerotheca fuliginea; in vivo): 40

Molecule: OC(Cc1ccccc1Cl)(Cn1nc[nH]c1=S)C1(Cl)CC1 (stereo not shown) [Prothioconazole (b-23), Prothioconazole]
- Preventive value (Pyricularia oryzae; [3]): 33
- Preventive value (Botrytis cinerea): 33

Molecule: COC(=O)N(OC)c1ccccc1COc1ccn(-c2ccc(Cl)cc2)n1 [Pyraclostrobin (b-19), Pyraclostrobin]
- Preventive value (Pyricularia oryzae; [2]): 40

Molecule: Cc1cc(C)nc(Nc2ccccc2)n1 [Pyrimethanil (b-62), Pyrimethanil]
- Preventive value (Pyricularia oryzae; Table 3-4, group b ingredient alone, treatment concentration printed 10 + 50 ppm): 33
- Preventive value (Botrytis cinerea): 33

Molecule: O=C1CCc2cccc3c2N1CC3 [Pyroquilon (b-104), Pyroquilon]
- Preventive value (Pyricularia oryzae; [9]): 67
- Preventive value (Sphaerotheca fuliginea; in vivo): 7

Molecule: CC(=O)Oc1c(C)c(C)nc2c(F)cc(C(C)(C)C)cc12 [Tebufloquin (b-64), Tebufloquin]
- Preventive value (Pyricularia oryzae; [10]): 73
- Preventive value (Sphaerotheca fuliginea; in vivo): 67

Molecule: c1ccc2[nH]c(-c3cscn3)nc2c1 [Thiabendazole (b-60), Thiabendazole]
- Preventive value (Sphaerotheca fuliginea; in vivo): 40
- Preventive value (Botrytis cinerea): 57

Molecule: Cc1nc(C(F)(F)F)c(C(=O)Nc2c(Br)cc(OC(F)(F)F)cc2Br)s1 [Thifluzamide (b-42), Thifluzamide]
- Control value (Sphaerotheca fuliginea; in vivo): 73
- Preventive value (Botrytis cinerea): 23

Molecule: Cc1ccc(NC(=O)c2snnc2C)cc1Cl [Tiadinil (b-45), Tiadinil]
- Preventive value (Pyricularia oryzae; [10]): 60
- Preventive value (Sphaerotheca fuliginea; in vivo): 40

Molecule: COP(=S)(OC)Oc1c(Cl)cc(C)cc1Cl [Tolclofos-methyl]
- Preventive value (Pyricularia oryzae; in vivo): 33
- Preventive value (Sphaerotheca fuliginea; in vivo): 33

Molecule: CC(C)(C)C(O)C(Oc1ccc(Cl)cc1)n1cncn1 (stereo not shown) [Triadimenol (b-33), Triadimenol]
- Preventive value (Pyricularia oryzae; Table 3-4, group b ingredient alone, treatment concentration printed 10 + 250 ppm): 33
- Preventive value (Botrytis cinerea): 17

Molecule: CCCCCCCCCCCCCN1CC(C)OC(C)C1 (stereo not shown) [Tridemorph (b-66), Tridemorph]
- Preventive value (Sphaerotheca fuliginea; in vivo): 33
- Preventive value (Botrytis cinerea): 17

Molecule: CON=C(C(=O)OC)c1ccccc1CON=C(C)c1cccc(C(F)(F)F)c1 [Trifloxystrobin (b-55), Trifloxystrobin]
- Preventive value (Pyricularia oryzae; [2]): 57
- Preventive value (Botrytis cinerea): 33

Molecule: CCC(C)(NC(=O)c1cc(Cl)c(C)c(Cl)c1)C(=O)CCl (stereo not shown) [Zoxamide (b-39), Zoxamide]
- Preventive value ([1]; treatment concentration 0.4 ppm): 33
- Preventive value (Phytophthora infestans; Table 6-2, treatment concentration 0.4 ppm, 5 days after inoculation): 40

Molecule: Propineb [Propineb (b-69)]
- Preventive value (Sphaerotheca fuliginea; in vivo): 17
- Preventive value (Botrytis cinerea): 33

— patent US10201158B2, “Plant disease control composition and method for controlling plant disease by application of same” (MITSUI CHEMICALS AGRO, INC., priority 2014, dated 2019)
